Legend:
[1] = tested on: hormone receptor positive breast cancer; conditions: adjuvant tamoxifen for five years; cited from earlier work
[2] = tested on: postmenopausal patients with stage II invasive breast cancer; test: Randomised trial of two years of tamoxifen (40 mg/day) vs control in postmenopausal patients; assay type: in vivo, human
From the text: The patients included were enrolled in a multi-center clinical trial at Umea University Hospital, Sweden, during 1980-1987 (Trial II) included in the Oxford meta-analysis. The inclusion criteria were postmenopausal patients (>55 years) with stage II (pT1, pN1, pM0, pT2, pN0, pM0, pT2, […], pM0) invasive breast cancer. For patients older than 70 years, stage II and stage III breast cancer patients were included. Patients were operated with modified radical mastecomy. The hormone receptor level was not determined at time of randomization. Patients were randomized to control or tamoxifen treatment (40 mg/day) for two years by the Regional Oncologic Center and oral informed consent was registered on admission to the Oncological Clinic. The study was approved by the Ethical Committee at the Umea university 1980 as well as 2002 (modification regarding molecular markers used in tissue micro array). The median age was 66.5 years (55-75 years) at inclusion. The median follow-up time was 18 years (range 15-22 years) for surviving patients.
(§1) 3-4 um sections of the paraffin embedded tissue arrays were dried, deparaffinized, rehydrated and microwave treated for 5+5 min in a citrate buffer (pH 6.0) before being processed in an automatic immunohistochemistry staining machine according to standard procedures (TechMate500, Dako, Denmark) using a polyclonal VEGF (A-20) antibody diluted 1:400 recognizing VEGF 165, 189 and 121 (Santa Cruz, Calif., USA) and a monoclonal VEGFR2 antibody recognizing VEGFR2/KDR diluted 1:1000 (Santa Cruz, Calif., USA). Normal human kidneys were used as positive controls for VEGF-A and for VEGFR2, human aortic endothelium served as positive controls. VEGF-A was previously validated using an ELISA-based method (LR). The cytoplasmatic staining intensity was evaluated semi-quantitatively using a classification from 0-3, representing lack of staining (0), low staining intensity (1), intermediate staining intensity (2) and high staining intensity (3). Only invasive tumor cells were evaluated. In survival analyses, high staining intensity (grade 3) was compared with the other grades (0, 1, 2) for both VEGF-A and VEGFR2 in premenopausal patients. In postmenopausal patients lack of staining was compared with staining of any intensity.
(§2) ER and PR were determined by immunohistochemistry in a tissue microarray. For this purpose, the Ventana Benchmark system (Ventana Medical Systems Inc., AZ, USA) with prediluted antibodies (Anti-ER Clone 6F11 and Anti-PgR Clone 16) was used. In line with the clinically established cut-off used for hormone receptor assessment, tumors with more than 10% positively staining nuclei were considered positive. In addition, the fractions of positive nuclei were quantified.
(§3) For survival analyses all calculations were done according to the intention to treat rule. Recurrence-free survival (RFS) considered distant, local and regional metastasis as primary event as well as breast cancer death, whereas contralateral breast cancer was not included. The Kaplan-Meier method was used to estimate recurrence-free and breast cancer survival and the log-rank test to compare survival in different strata. Cox proportional hazards model was used for estimation of univariate hazard ratios (HRs) and multivariate analysis.

[3] = tested on: premenopausal patients with stage II invasive breast cancer; test: Randomised trial of two years of adjuvant tamoxifen vs control in premenopausal patients; assay type: in vivo, human
From the text: Premenopausal patients or patients under 50 years with stage II (pT2 N0 M0, pT1 N1 M0 and pT2, N1 M0) invasive breast cancer were enrolled in a clinical trial between 1986 -1991 and randomized to control (n=288) or two years of tamoxifen (n=276). All patients were radically operated by modified radical mastectomy or breast conserving surgery with axillary lymph node dissection (level one and two). After breast conserving surgery, radiotherapy (50 Gy) was given to the breast and in patients with axillary lymph node metastases locoregional radiotherapy was delivered. Patients were included irrespective of hormone receptor status. Randomization was performed by the Regional Oncologic Centre and oral informed consent registered for all patients. The study was approved by the ethical committee at Lund and Linkoping Universities.
The patients were followed until 5 years with annual mammogram and physical examination and then within the national program by screening mammogram every 18th month.The median duration of follow-up for patients without breast cancer event was 13.9 years (95% Cl: 13.6-14.3). The median follow-up time was the same in the two treatment arms. • 2. Postmenopausal Patients
as §1
as §2, with “quantified. […]” for “quantified.”
as §3

[4] = Cox model with VEGFR2 status and interaction-variable, ER positive patients
[5] = Cox model, ER positive patients
[6] = Cox multivariate model with VEGF-A status and interaction-variable, ER positive patients
[7] = Cox multivariate model, ER positive patients
[8] = ER positive patients, univariate
[9] = ER positive, HER2 low tumors, univariate

CC/C(=C(\c1ccccc1)c1ccc(OCCN(C)C)cc1)c1ccccc1 [tamoxifen]
reduction of death [1]: 28% | reduction of recurrence [1]: 50% | HR of interaction-variable VEGFR2 status x tamoxifen treatment, OS ([2]; Cox model, 10 years, ER positive >90% stained nuclei): 0.2 | HR, OS at 10 years (tamoxifen vs control) ([2]; ER positive >90% stained nuclei, VEGF-A negative tumors): 0.3 | HR, OS at 10 years (tamoxifen vs control) ([2]; ER positive >90% stained nuclei, VEGF-A positive tumors): 0.8 | HR, OS at 10 years (tamoxifen vs control) ([2]; ER positive >90% stained nuclei, VEGFR2 negative tumors): 0.2 | HR, OS at 10 years (tamoxifen vs control) ([2]; ER positive >90% stained nuclei, VEGFR2 positive tumors): 0.9 | effect on overall survival of tamoxifen treatment ([2]; all patients irrespective of hormone receptor content): non-significant | tamoxifen response (overall survival) ([2]; patients with >90% ER positive cells, 10 years): notable at 10-years, however not strictly significant | absolute risk reduction (recurrence) ([3]; 324 ER positive patients, two years of tamoxifen vs control): 15% | HR, OS, Randomization Tam v control [3, 4]: 0.6 | HR, RFS, Randomization Tam v control [3, 4]: 0.6 | HR, OS, interaction-variable tamoxifen treatment x VEGFR2 status [3, 5]: 5.2 | HR, RFS, interaction-variable tamoxifen treatment x VEGFR2 status [3, 5]: 2.2 | HR, OS, Randomization Tam v control [3, 6]: 1.1 | HR, RFS, Randomization Tam v control [3, 6]: 0.5 | HR, OS, interaction-variable tamoxifen treatment x VEGF-A status [3, 7]: 0.5 | HR, RFS, interaction-variable tamoxifen treatment x VEGF-A status [3, 7]: 1.5 | HR, OS (tamoxifen vs control) ([3]; ER negative disease): 0.9 | HR, RFS (tamoxifen vs control) ([3]; ER negative disease): 0.9 | recurrence rate ([3]; ER positive patients, tamoxifen treated group): 36% | HR, OS (tamoxifen vs control) [3, 8]: 0.8 | HR, RFS (tamoxifen vs control) [3, 8]: 0.6 | HR, OS (tamoxifen vs control) [3, 9]: 0.8 | HR, RFS (tamoxifen vs control) [3, 9]: 0.6 | HR, OS (tamoxifen vs control) ([3]; ER positive, HER 2 overexpressing tumor, univariate): 0.9 | HR, RFS (tamoxifen vs control) ([3]; ER positive, HER2 overexpression, univariate): 0.7 | HR, RFS (tamoxifen vs control) ([3]; ER positive, VEGF grade 3 tumors, univariate): 0.8 | HR, RFS (tamoxifen vs control) ([3]; ER positive, VEGF-A grade 0-2 tumors, univariate): 0.6 | HR, OS (tamoxifen vs control) ([3]; ER positive, VEGFA grade 0-2 tumors, univariate): 0.8 | HR, OS (tamoxifen vs control) ([3]; ER positive, VEGFA grade 3 tumors, univariate): 0.8 | HR, OS (tamoxifen vs control) ([3]; ER positive, VEGFR2 3): 3.4 | HR, RFS (tamoxifen vs control) ([3]; ER positive, VEGFR2 grade 0, 1 or 2 staining intensity): 0.6 | HR, OS (tamoxifen vs control) ([3]; ER positive, VEGFR2 grade 0-2): 0.7 | HR, RFS (tamoxifen vs control) ([3]; ER positive, intense expression of VEGFR2 (grade 3)): 1.4
